This note sets out measurements from US6462023B1, “Cytostatic agents” (British Biotech Pharmaceuticals, Ltd., priority 1988, dated 2002).

Read-outs that look alike come from different tables or passages of the source.

The subject of the assay is histiocytic lymphoma (U937). Description: cell proliferation assay ([methyl-3H] thymidine incorporation), U937. Format: cell-based, human. Conditions: for activity at 6 µM: Homo sapiens, U-937, 72 hours in culture, n=6, read-out: U937: percentage of control 3[H] Thymidine incorporation. On the procedure: (§1) Two human cell lines namely a histiocytic lymphoma (U937) and a melanoma (RPMI-7951) were seeded into 30 mm^2 tissue culture wells, in the appropriate culture medium supplemented with 10% fetal calf serum at a density of 250 cells/mm^2. Six hours later the test compounds were added in the same culture medium to the cells to give a final concentration of 6 μM. Control wells contained cells supplemented with the same culture medium containing the equivalent amount of drug vehicle, which in this case was DMSO at a final concentration of 0.08%. After 72 hours in culture the cells were pulsed for 3 hours with [methyl-^3[H] Thymidine] (2 μCi/ml) and then harvested onto filter mats and DNA associated radioactivity counted. Results are expressed as percentage of control ^3[H] Thymidine incorporation (n=6±1 stdv).
Further examples were tested in the U937 assay described above at 6 μM and the results, expressed as percentage of control ^3[H] Thymidine incorporation (n=6±1 stdv), are set out in the following Table 2.
as §1, with “A” for “Two”, “line,” for “lines”, “(U937), was” for “(U937) and a melanoma (RPMI-7951) were”, “30MM^2” for “30 mm^2”, “cellS/MM^2.” for “cells/mm^2.”, “were” for “are”
(Uptake of a labelled nucleoside into DNA is a usual measure of proliferation.)

Turning to `C=CC[C@H](C(=O)NO)[C@@H](CC(C)C)C(=O)N[C@@H](Cc1ccccc1)C(=O)OC(CC)CC` [Example 30, 2S-(3S-Hydroxycarbamoyl-2R-isobutyl-hex-5-enoylamino)-3-phenylpropionic acid 1-ethyl-propyl ester], the activity at 6 µM (Table 2, 6 μM) was determined as 6%.

Regarding `COCCOC(=O)[C@@H](Cc1ccccc1)NC(=O)[C@H](CC(C)C)[C@H](C)C(=O)NO` [Example 14, 2S-[2R-(1S-Hydroxycarbamoyl-ethyl)-4-methyl-pentanoylamino]-3-phenyl-propionic acid 2-methoxy-ethyl ester], the activity at 6 µM (Table 2, 6 μM) amounted to 33%.

As for `CO[C@H](C(=O)NO)[C@@H](CC(C)C)C(=O)N[C@@H](Cc1ccccc1)C(=O)OC(C)C` [Example 16, 2S-[2R-(S-Hydroxycarbamoyl-methoxy-methyl)-4-methyl-pentanoylamino]-3-phenyl-propionic acid isopropyl ester], the activity at 6 µM (Table 2, 6 μM) amounted to 2%.

In the case of `C=CC[C@H](C(=O)NO)[C@@H](CC(C)C)C(=O)N[C@@H](Cc1ccccc1)C(=O)OCc1ccccc1` [Example 26, 2S-(3S-Hydroxycarbamoyl-2R-isobutyl-hex-5-enoylamino)-3-phenylpropionic acid benzyl ester], for the setting “Table 2, 6 μM”, the activity at 6 µM worked out at 0%.

Take `C=CC[C@H](C(=O)NO)[C@@H](CC(C)C)C(=O)N[C@@H](Cc1ccccc1)C(=O)OC(C)(C)C` [Example 6, 2S-(3S-Hydroxycarbamoyl-2R-isobutyl-hex-5-enoylamino)-3-phenyilpropionic acid tert-butyl ester]: the activity at 6 µM (Table 2, 6 μM) turned out to be 18%.

Regarding `C=CC[C@H](C(=O)NO)[C@@H](CC(C)C)C(=O)N[C@@H](COC(C)(C)C)C(=O)OC1CCCC1` [Example 40, 3-tert-Butoxy-2S-(3S-hydroxcarbamoyl-2R-isobutyl-hex-5-enoylamino)-propionic acid cyclopentyl ester], the activity at 6 µM (Table 2, 6 μM) worked out at 0%.

Turning to `C=CC[C@H](C(=O)NO)[C@@H](CC(C)C)C(=O)N[C@@H](Cc1ccccc1)C(=O)O[C@@H](C)CCC` [Example 31, 2S-(3S-Hydroxycarbamoyl-2R-isobutyl-hex-5-enoylamino)-3-phenylpropionic acid 1S-methyl-butyl ester], where the note is “Table 2, 6 μM”, the activity at 6 µM turned out to be 7%.

Take `C=CC[C@H](C(=O)NO)[C@@H](CC(C)C)C(=O)N(C)[C@@H](Cc1ccccc1)C(=O)OC(C)C` [Example 25, 2S-{(3S-Hydroxycarbamoyl-2R-isobutyl-hex-5-enoyl)-methyl-amino)-3-phenylpropionic acid isopropyl ester]: the activity at 6 µM (Table 2, 6 μM) was found to be 34%.

`C=CC[C@H](C(=O)NO)[C@@H](CC(C)C)C(=O)N[C@@H](Cc1cccnc1)C(=O)OC1CCCC1` [Example 39, 2S-(3S-Hydroxycarbamoyl-2R-isobutyl-hex-5-enoylamino)-3-pyridin-3-yl-propionic acid cyclopentyl ester]: under “Table 2, 6 μM”, the activity at 6 µM is 26%.

For the compound `CC(C)C[C@@H](C(=O)N[C@@H](Cc1ccccc1)C(=O)OC(C)C)[C@H](O)C(=O)NO` [Example 8, 2S-[2R-(S-Hydroxy-hydroxycarbamoyl-methyl)-4-methyl-pentanoylamine]-3-phenyl-propionic acid isopropyl ester], the activity at 6 µM (Table 2, 6 μM) worked out at 1%.

With `C=CC[C@H](C(=O)NO)[C@@H](CC(C)C)C(=O)N[C@@H](CC(C)C)C(=O)OC1CCCC1` [Example 27, 2S-(3S-Hydroxycarbamoyl-2R-isobutyl-hex-5-enoylamino)-4-methyl-pentanoic acid cyclopentyl ester], the activity at 6 µM (Table 2, 6 μM) is 0%.

For the compound `CC(C)C[C@H](CC(=O)NO)C(=O)N[C@@H](Cc1ccccc1)C(=O)OC(C)C` [Example 7, 2S-(2R-Hydroxycarbamoylmethyl-4-methyl-pentanoylamino)-3-phenyl-propionic acid isopropyl ester], where the note is “Table 2, 6 μM”, the activity at 6 µM is 0%.

`O=C(OC1CCCC1)[C@H](Cc1ccccc1)NC(=O)[C@H](CC#Cc1ccccc1Cl)[C@H](O)C(=O)NO` [Example 42, 2S-[5-(2-Chlorophenyl)-2R-(1S-hydroxy-hydroxycarbamoyl-methyl)-pent-4-ynoylamino]-3-phenylpropionic acid cyclopentyl ester]: for the setting “Table 2, 6 μM”, the activity at 6 µM amounted to 0%.

`O=c1[nH]cc(F)c(=O)[nH]1` [5-fluorouracil, reference compound]: the “activity in the U937 assay relative to that observed with the vehicle alone” value (6 μM, comparison compound) came out at 50%.

As for `C=CC[C@H](C(=O)NO)[C@@H](CC(C)C)C(=O)N[C@@H](Cc1ccccc1)C(=O)O[C@H](C)CCC` [Example 34, 2S-(3S-Hydroxycarbamoyl-2R-isobutyl-hex-5-enoylamino)-3-phenylpropionic acid 1R-methyl-butyl ester], the activity at 6 µM (Table 2, 6 μM) stood at 3%.

`C=CC[C@H](C(=O)NO)[C@@H](CC(C)C)C(=O)N[C@H](C(=O)OC1CCCC1)C(C)CC` (stereo partly drawn) [Example 12, 2S-(3S-Hydroxycarbamoyl-2R-isobutyl-hex-5-enoylamino)-3S-methyl-pentanoic acid cyclopentyl ester]: for the setting “Table 2, 6 μM”, the activity at 6 µM was 10%.

As for `C=CC[C@H](C(=O)NO)[C@@H](CC(C)C)C(=O)N[C@@H](Cc1ccccc1)C(=O)OC1CCCCC1` [Example 32, 2S-(3S-Hydroxycarbamoyl-2R-isobutyl-hex-5-enoylamino)-3-phenylpropionic acid cyclohexyl ester], the activity at 6 µM (Table 2, 6 μM) is 0%.

Turning to `C=CC[C@H](C(=O)NO)[C@@H](CC(C)C)C(=O)N[C@H](C(=O)OC1CCCC1)C(C)(C)C` [Example 36, 2S-(3S-Hydroxycarbamoyl-2R-isobutyl-hex-5-enoylamino)-3,3-dimethyl-butyric acid cyclopentyl ester], the activity at 6 µM (Table 2, 6 μM) is 51%.

Consider `C=CC[C@H](C(=O)NO)[C@@H](CC(C)C)C(=O)N[C@@H](CC1CCCCC1)C(=O)OC1CCCC1` [Example 28, 3-Cyclohexyl-2S-(3S-hydroxycarbamoyl-2R-isobutyl-hex-5-enoylamino)-propionic acid cyclopentyl ester], for which, for the setting “Table 2, 6 μM”, the activity at 6 µM came to 0%.

On to `CC(C)C[C@@H](C(=O)N[C@@H](Cc1ccccc1)C(=O)OC(C)C)[C@H](C)C(=O)NO` [Example 9, 2S-[2R-(1S-Hydroxycarbamoyl-ethyl)-4-methyl-pentanoylamino]-3-phenyl-propionic acid isopropyl ester], for which the activity at 6 µM (Table 2, 6 μM) worked out at 8%.

`CC(C)C[C@@H](C(=O)N[C@@H](Cc1ccccc1)C(=O)OC1CCCC1)[C@@H](C(=O)NO)C1CCCC1` [Example 37, 2S-[2R-(1S-Cyclopentyl-hydroxycarbamoyl-methyl)-4-methyl-pentanoylamino]-3-phenyl-propionic acid cyclopentyl ester]: the activity at 6 µM (Table 2, 6 μM) amounted to 0%.

In the case of `COC(=O)[C@@H](Cc1ccccc1)NC(=O)[C@@H](CC(C)C)[C@@H](C)C(=O)NO` [Example 4, 3S-(2-Phenyl-1R-methylcarboxy-ethylcarbamoyl)-2R, 5-dimethylhexanohydroxamic acid, reference compound], the activity at 6 µM (Table 1, final concentration 6 μM, 3 hours pulse) turned out to be 93%.

Turning to `CO[C@H](C(=O)NO)[C@@H](CC(C)C)C(=O)N[C@H](C(=O)OC(C)C)C(C)(C)C` [Example 24, 2S-[2R-(S-Hydroxycarbamoyl-methoxy-methyl)-4-methyl-pentanoylamino]-3,3-dimethyl-butyric acid isopropyl ester], the activity at 6 µM (Table 2, 6 μM) was determined as 50%.

Regarding `C#CC[C@@H](C(=O)N[C@@H](Cc1ccccc1)C(=O)OC1CCCC1)[C@H](O)C(=O)NO` [Example 38, 2S-[2R-(1S-Hydroxy-hydroxycarbamoyl-methyl)-pent-4-ynoylamino]-3-phenylpropionic acid cyclopentyl ester], under “Table 2, 6 μM”, the activity at 6 µM turned out to be 37%.

As for `C=CC[C@H](C(=O)NO)[C@@H](CC(C)C)C(=O)N[C@@H](Cc1ccccc1)C(=O)OC1CCCC1` [Example 20, 2S-(3S-Hydroxycarbamoyl-2R-isobutyl-hex-5-enoylamino)-3-phenylpropionic acid cyclopentyl ester], the activity at 6 µM (Table 2, 6 μM) worked out at 0%.

As for `C=CC[C@H](C(=O)NO)[C@@H](CC(C)C)C(=O)N[C@@H](Cc1ccccc1)C(=O)OC1CCOC1` (stereo partly drawn) [Example 35, 2S-(3S-Hydroxycarbamoyl-2R-isobutyl-hex-5-enoylamino)-3-phenylpropionic acid tetrahydro-furan-3(R, S)-yl ester], the activity at 6 µM (Table 2, 6 μM) worked out at 14%.

With `CCC[C@H](C(=O)NO)[C@@H](CC(C)C)C(=O)N[C@@H](C(=O)OCCOC)C(C)(C)C` [Example 15, 2S-(3S-Hydroxycarbamoyl-2R-isobutyl-hexanoylamino)-3,3-dimethyl-butyric acid 2-methoxy-ethyl ester], the activity at 6 µM (Table 2, 6 μM) came out at 19%.
